In article PMC4686663, “Ultrahigh-throughput discovery of promiscuous enzymes by picodroplet functional metagenomics” (Nature Communications, 2015):
Counter-ions that a name gives are not always drawn. Like-named read-outs stand apart in the source and are kept apart here.

Experiments:
P83 = target: T1, P83 (uncultured organism, UniProt A0A141FA94); test: 4-nitrophenolate release, […] nm, initial rates; format: biochemical; conditions: 100 mM MOPS-NaOH pH 8.0, 150 mM NaCl, 25 °C
T1 construct: N-terminal Strep-tag, pASKIBA5plus (BsaI), E. coli BL21(DE3); Strep-Tactin and gel filtration

P86 = target: T2, P86 (uncultured organism, UniProt A0A141FA97); test: 4-nitrophenolate release, […] nm, initial rates; format: biochemical; conditions: 100 mM MOPS-NaOH pH 8.0, 150 mM NaCl, 25 °C
T2 construct: N-terminal Strep-tag, pASKIBA5plus (EcoRI-NcoI), E. coli BL21(DE3); Strep-Tactin and gel filtration

P84 = P84 (uncultured organism, UniProt A0A141FA95); test: 4-nitrophenolate release, […] nm, initial rates; conditions: 100 mM MOPS-NaOH pH 8.0, 150 mM NaCl, 25 °C
P85 = tested on: T3, P85; test: 4-nitrophenolate release, […] nm, initial rates; format: biochemical; conditions: 100 mM MOPS-NaOH pH 8.0, 150 mM NaCl, 25 °C
T3 construct: N-terminal Strep-tag, pASKIBA5plus (BsaI), E. coli BL21(DE3); Strep-Tactin and gel filtration

P40 = target: T4, P40 (uncultured organism, UniProt A0A141FA90); test: sulfate transfer kinetics; format: biochemical; conditions: acceptor phenolate; ping-pong mechanism
T4 construct: ORF p40 recloned in modified pRSFDuet (NcoI-XhoI), E. coli BL21(DE3); no tag stated

[1] = substrate: O=C1CCc2ccccc2O1; test: purified protein, by the assay type; parameters: Michaelis-Menten kinetics of substrate hydrolysis by purified enzyme, initial rates by absorbance or fluorescence, plate reader
Protocol: (§1) All enzymatic assays were conducted at 25 °C in a final volume of 200 μl, in the activity buffer (100 mM MOPS-NaOH pH 8.0, containing 150 mM NaCl) that was used throughout the experiments, unless otherwise stated. Measurements were performed in 96-well plate format and product formation followed in SpectraMax M5 or 190 microplate readers. Hydrolysis of substrates with fluorescein leaving groups (1d and 2d) was monitored at the following wavelengths: λexcitation=488 nm and λemission=525 nm. A calibration curve (linearly fit to the equation: fluorescence=1.2 × 10^10 M^−1 [fluorescein]) was used to quantify fluorescein release. Hydrolysis of esters 1, 2a, 2b, 3, 4, 5, 6 and acetamide 9 was monitored by measuring absorbance of p-nitrophenolate at 400 nm (ɛ≈17,700 M^−1 cm^−1). Hydrolysis of thioester 7 was measured in the presence of the indicator 5,5'-dithiobis-(2-nitrobenzoic acid) (500 μM); the increase of 2-nitro-5-thiobenzoate was monitored at 412 nm (ɛ≈13,100 M^−1 cm^−1)[39]. Hydrolysis of lactones 8b, 8c, 8d1, 8d2 was measured using a pH-shift assay in 2.5 mM Bicine, 200 mM NaCl, 0.3 mM cresol purple pH 8.3 (ref. [65]). The pH drop was monitored by the decrease in the absorbance of the indicator dye cresol purple at 577 nm (ɛ≈4,000 M^−1 cm^−1). Hydrolysis of lactone 8a was measured at 270 nm in an ultraviolet-transparent 96-well plate. Hydrolysis of β-lactam 10 was measured at 405 nm in phosphate buffer (100 mM, pH 8.0). All kinetic parameters were calculated by fitting initial rates vo to the Michaelis–Menten equations (or, if saturation could not be reached due to solubility limits, to linear correlations) using Kaleidagraph. Example data and details of equations used for fitting are shown in Supplementary Fig. 14. (b) PTE hits. Applying the screening workflow to PTEs (using triester 2d as substrate) led to the isolation of eight unique and novel sequences, mostly originating from unknown microorganisms (Supplementary Table 2). Only one of these genes (p83) was predicted as a potential PTE by Pfam domain recognition (Fig. 3). […]

[2] = substrate: CC(=O)Oc1ccc([N+](=O)[O-])cc1; test: purified protein, by the assay type; parameters: Michaelis-Menten kinetics of substrate hydrolysis by purified enzyme, initial rates by absorbance or fluorescence, plate reader; conditions: 25.0 °C
Protocol: as §1

P84, sequence (A0A141FA95 entry or part of it): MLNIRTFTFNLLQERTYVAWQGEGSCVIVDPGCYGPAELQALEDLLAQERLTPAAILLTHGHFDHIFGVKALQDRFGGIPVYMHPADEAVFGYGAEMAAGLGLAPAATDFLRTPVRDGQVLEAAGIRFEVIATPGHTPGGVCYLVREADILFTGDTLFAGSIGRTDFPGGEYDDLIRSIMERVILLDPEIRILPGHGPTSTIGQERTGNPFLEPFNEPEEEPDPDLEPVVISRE
T2 sequence (A0A141FA97 entry or part of it): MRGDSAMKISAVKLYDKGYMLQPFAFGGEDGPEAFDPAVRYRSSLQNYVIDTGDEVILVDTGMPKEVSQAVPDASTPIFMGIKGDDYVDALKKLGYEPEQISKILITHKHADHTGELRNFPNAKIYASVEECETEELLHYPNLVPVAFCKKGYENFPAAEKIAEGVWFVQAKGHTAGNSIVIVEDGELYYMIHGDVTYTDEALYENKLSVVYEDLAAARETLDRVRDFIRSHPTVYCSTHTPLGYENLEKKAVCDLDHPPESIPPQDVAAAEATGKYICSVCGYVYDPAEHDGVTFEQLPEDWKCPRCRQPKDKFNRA
T4 sequence (A0A141FA90 entry or part of it): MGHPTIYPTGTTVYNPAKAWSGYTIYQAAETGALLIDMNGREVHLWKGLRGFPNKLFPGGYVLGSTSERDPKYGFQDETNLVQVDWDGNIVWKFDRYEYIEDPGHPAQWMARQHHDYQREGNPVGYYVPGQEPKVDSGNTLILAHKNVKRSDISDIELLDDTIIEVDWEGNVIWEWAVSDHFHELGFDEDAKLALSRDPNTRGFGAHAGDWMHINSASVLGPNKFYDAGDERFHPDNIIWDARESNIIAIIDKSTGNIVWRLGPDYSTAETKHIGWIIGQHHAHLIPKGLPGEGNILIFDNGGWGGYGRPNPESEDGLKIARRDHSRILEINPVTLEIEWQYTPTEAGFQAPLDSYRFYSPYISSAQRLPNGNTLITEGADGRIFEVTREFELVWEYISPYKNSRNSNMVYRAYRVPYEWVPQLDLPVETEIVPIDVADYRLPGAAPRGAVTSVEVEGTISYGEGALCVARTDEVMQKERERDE

## CCOP(=O)(OCC)Oc1ccc([N+](=O)[O-])cc1 [2a, paraoxon]
P83
  Km: > 5 mM
P86
  Km: > 5 mM
P84
  Km: > 5 mM
P85
  Km: > 5 mM

## O=[N+]([O-])c1ccc(OS(=O)(=O)O)cc1 [1a, sulfate ester 1a]
P40
  sulfate transfer kinetics: P40 was shown to catalyse sulfate transfer from sulfate ester 1a to phenolate

B1: P91 (uncultured organism) (protein)
chain: MTARKVDYTDGATRCIGEFHWDEGKSGPRPGVVVFPEAFGLNDHAKERARRLADLGFAALAADMHGDAQVFDAASLSSTIQGYYGDRAHWRRRAQAALDALTAQPEVDGSKVAAIGFCFGGATCLELARTGAPLTAIVTFHGGLLPEMAGDAGRIQSSVLVCHGADDPLVQDETMKAVMDEFRRDKVDWQVLYLGNAVHSFTDPLAGSHGIPGLAYDATAEARSWTAMCNLFSELFG
notes: N-terminal Strep-tag, pASKIBA5plus (BsaI), E. coli BL21(DE3); Strep-Tactin and gel filtration
[1]; 25.0 °C
  Km: 7.7 ± 2.5 mM

B2: P88.2 (uncultured organism) (protein)
chain: MNLTETLPGDELANAMAARGYPAVEPATTRDRGVGPFRRLVLRGARILDGTGAPPVGPYDIVVEGGRIKEVVLVGVPKMPIKPERRPAPGDHEIDCTGKLVTPGFVDAHVHIGTYYHAPSGPMPSADYVYKLWLAHGITTVREMACMNGVGWTLEQKEAAAANRIAAPKIVAHAYFPAVDEFIKTIYTVEQARKWVRAVKERGVDGLKFFGAPPAIMQAALEEANKLGMRSGCHHAQMSVSKVNALRSAQWGLTSTEHFYGIPEAMFIDRAVQAYPVGYDFMDESLRYNSSSQNFIQAAEPGSAKWQETLEKFLELGHSFVPTLAILEANRDLMRARRADWHDEYTHKTLWTYFQPHRGGHCSHWYRWTTTNEVQWKEHFRRWMRFCNDYKNLGGRVCPGSDAGFTFQLYGFCFIRELEQMQEAGFHPLEIFRAATSESAALLGVDHETGTIEPGKCADLLVHRYDPLDDLKYLYGTGAWRLNDETGKTEWHRGIEYTIKDGVIYDPAELLADVRAIVAESFNEGEDTRPRTRR
notes: N-terminal Strep-tag, pASKIBA5plus (EcoRI-NcoI), E. coli BL21(DE3); Strep-Tactin and gel filtration
[2]
  Km: 2.9 ± 1.2 mM

B3: P83 (uncultured organism) (protein)
chain: MQINSVLGPVDTADLGFTLIHEHLLIGWAGWQWDSRWEFDRANAMAKAVDLLQELKALGVSTFVDPCPMDIGRDPEFLAEASQRSGMTIIASTGLYHSEMGIPSYFHAMPEEEIAEIFIHDLTEGMGHTGIKAGIIKCATTAGHVTEQEQKTHGAAARAQVATGAPIITHTDENGPMGLAQLDIFESRGASVSKIAIGHSCGNGDIRYLLSVLERGAWLSFDRFGFGLSASDDVRVASLLGLIGLGYADRLMISHDSVSTFLAKPGGWDPAQEPSLANWKPTHIIQNIIPRLKNAGVSQEVIDTITIDNPRRYFEGSAASGNK
notes: as for B1
[1]
  Km: 2.5 ± 0.4 mM
